ChEMBL document CHEMBL1201862, “PubChem BioAssay data set” (2004)
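Protocol summary: plate cells (96-well), add compound at 5 concentrations, incubate 48 h, interpolate endpoints linearly. GI50: concentration for 50% inhibition of growth.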 Activity calls are given as the source filed them. Cut-off read from the data, not from the text of the source: active = GI50 up to about 1.1 µM and inactive = higher.

Legend:
Assay in all cases: NCI anticancer screen, dose series, 48 h
NCI-H522 = system: NCI-H522
HT-29 = system: HT-29
A498 = system: A498
HCT-116 = system: HCT-116
NCI-H23 = system: NCI-H23
MDA-N = system: MDA-N
KM12 = system: KM12
SW-620 = system: SW-620
K562 = system: K562
OVCAR-3 = system: OVCAR-3
RPMI-8226 = system: RPMI-8226
DU-145 = system: DU-145
OVCAR-4 = system: OVCAR-4
UACC-62 = system: UACC-62
SK-MEL-2 = system: SK-MEL-2
SK-MEL-5 = system: SK-MEL-5
OVCAR-5 = system: OVCAR-5
MDA-MB-435 = system: MDA-MB-435
LOX IMVI = system: LOX IMVI
BT-549 = system: BT-549
OVCAR-8 = system: OVCAR-8
UO-31 = system: UO-31
MOLT-4 = system: MOLT-4
HL-60 = system: HL-60
COLO 205 = system: COLO 205
HOP-62 = system: HOP-62
786-0 = system: 786-0
Malme-3M = system: Malme-3M
M14 = system: M14
NCI-H460 = system: NCI-H460
RXF 393 = system: RXF 393
MDA-MB-231 = system: MDA-MB-231
T47D = system: T47D
SF-539 = system: SF-539
NCI-H226 = system: NCI-H226
HOP-92 = system: HOP-92
SF-268 = system: SF-268
SK-MEL-28 = system: SK-MEL-28
CAKI-1 = system: CAKI-1
IGROV-1 = system: IGROV-1
PC-3 = system: PC-3
MCF7 = system: MCF7
A549 = system: A549
HCT-15 = system: HCT-15
NCI/ADR-RES = system: NCI/ADR-RES
HCC 2998 = system: HCC 2998
SNB-75 = system: SNB-75
Hs-578T = system: Hs-578T
CCRF-CEM = system: CCRF-CEM
SNB-19 = system: SNB-19
UACC-257 = system: UACC-257
SK-OV-3 = system: SK-OV-3
SR = system: SR
EKVX = system: EKVX
SF-295 = system: SF-295
SN12C = system: SN12C
TK-10 = system: TK-10
ACHN = system: ACHN
U-251 = system: U-251
HOP-18 = system: HOP-18
DMS-114 = system: DMS-114
M19-MEL = system: M19-MEL
LXFL 529 = system: LXFL 529
KM-20L2 = system: KM-20L2
DLD-1 = system: DLD-1

For `CN(C)c1nc(N)c(C#N)c(C#N)c1C#N`, the GI50 (NCI-H522) was 1.87 µM (inactive), the GI50 (HT-29) was > 10 µM (inactive) and the GI50 (A498) was > 10 µM (inactive). The GI50 (HCT-116) was > 10 µM (inactive), the GI50 (NCI-H23) was > 7.46 µM (inactive) and the GI50 (MDA-N) was > 10 µM (inactive). For the same compound, the GI50 (KM12) was > 10 µM (inactive), the GI50 (SW-620) was 8.73 µM (inactive) and the GI50 (K562) was > 4.61 µM (inactive). The GI50 (OVCAR-3) was > 10 µM (inactive), the GI50 (RPMI-8226) was > 8.79 µM (inactive) and the GI50 (DU-145) was > 10 µM (inactive). The GI50 (OVCAR-4) was > 10 µM (inactive), the GI50 (UACC-62) was > 10 µM (inactive) and the GI50 (SK-MEL-2) was > 10 µM (inactive). The GI50 (SK-MEL-5) was > 10 µM (inactive), the GI50 (OVCAR-5) was > 10 µM (inactive) and the GI50 (MDA-MB-435) was > 10 µM (inactive). For the same compound, the GI50 (LOX IMVI) was > 10 µM (inactive), the GI50 (BT-549) was > 10 µM (inactive) and the GI50 (OVCAR-8) was > 10 µM (inactive). The GI50 (UO-31) was > 10 µM (inactive), the GI50 (MOLT-4) was 3.28 µM (inactive) and the GI50 (HL-60) was 2.21 µM (inactive). The GI50 (COLO 205) was > 8.81 µM (inactive), the GI50 (HOP-62) was > 10 µM (inactive) and the GI50 (786-0) was > 7.16 µM (inactive). The GI50 (Malme-3M) was > 10 µM (inactive), the GI50 (M14) was > 10 µM (inactive) and the GI50 (NCI-H460) was > 10 µM (inactive). The GI50 (RXF 393) was > 10 µM (inactive), the GI50 (MDA-MB-231) was > 10 µM (inactive) and the GI50 (T47D) was > 8.32 µM (inactive). The GI50 (SF-539) was > 10 µM (inactive), the GI50 (NCI-H226) was > 10 µM (inactive) and the GI50 (HOP-92) was > 10 µM (inactive). For the same compound, the GI50 (SF-268) was > 10 µM (inactive), the GI50 (SK-MEL-28) was > 10 µM (inactive) and the GI50 (CAKI-1) was > 10 µM (inactive). The GI50 (IGROV-1) was > 6 µM (inactive), the GI50 (PC-3) was > 10 µM (inactive) and the GI50 (MCF7) was > 10 µM (inactive). The GI50 (A549) was > 10 µM (inactive), the GI50 (HCT-15) was over 10 µM and the GI50 (NCI/ADR-RES) was > 10 µM (inactive). For the same compound, the GI50 (HCC 2998) was > 10 µM (inactive), the GI50 (SNB-75) was 9.68 µM (inactive) and the GI50 (Hs-578T) was > 10 µM (inactive). For the same compound, the GI50 (CCRF-CEM) was 3.08 µM (inactive), the GI50 (SNB-19) was > 10 µM (inactive) and the GI50 (UACC-257) was > 10 µM (inactive). For the same compound, the GI50 (SK-OV-3) was > 10 µM (inactive), the GI50 (SR) was 3.42 µM (inactive) and the GI50 (EKVX) was > 10 µM (inactive). The GI50 (SF-295) was > 10 µM (inactive), the GI50 (SN12C) was > 10 µM (inactive) and the GI50 (TK-10) was > 10 µM (inactive). The GI50 (ACHN) was > 10 µM (inactive) and the GI50 (U-251) was > 10 µM (inactive).
For `CCOc1ccc2c(ccc(/C=C/c3cc(C)c4cccnc4c3O)[n+]2C)c1`, the GI50 (NCI-H522) was 0.583 µM (active), the GI50 (HT-29) was 0.378 µM (active) and the GI50 (A498) was 1.67 µM (inactive). For the same compound, the GI50 (HCT-116) was 0.317 µM (active), the GI50 (NCI-H23) was 1.08 µM (active) and the GI50 (KM12) was 0.908 µM (active). For the same compound, the GI50 (SW-620) was 0.459 µM (active), the GI50 (K562) was 0.495 µM (active) and the GI50 (OVCAR-3) was 0.129 µM (active). The GI50 (RPMI-8226) was 0.818 µM (active), the GI50 (DU-145) was 3.62 µM (inactive) and the GI50 (OVCAR-4) was 1.7 µM (inactive). For the same compound, the GI50 (UACC-62) was 1.53 µM (inactive), the GI50 (HOP-18) was 2.8 µM (inactive) and the GI50 (SK-MEL-2) was 0.498 µM (active). The GI50 (SK-MEL-5) was 0.627 µM (active), the GI50 (OVCAR-5) was 1.24 µM (inactive) and the GI50 (MDA-MB-435) was 0.929 µM (active). For the same compound, the GI50 (LOX IMVI) was 0.356 µM (active), the GI50 (BT-549) was 1.52 µM (inactive) and the GI50 (OVCAR-8) was 0.301 µM (active). For the same compound, the GI50 (UO-31) was 8.09 µM (inactive), the GI50 (MOLT-4) was 0.158 µM (active) and the GI50 (HL-60) was 0.141 µM (active). For the same compound, the GI50 (COLO 205) was 0.624 µM (active), the GI50 (DMS-114) was 0.301 µM (active) and the GI50 (HOP-62) was 1.14 µM (inactive). The GI50 (786-0) was 0.53 µM (active), the GI50 (Malme-3M) was 1.94 µM (inactive) and the GI50 (M14) was 0.836 µM (active). The GI50 (M19-MEL) was 2.99 µM (inactive), the GI50 (NCI-H460) was 0.281 µM (active) and the GI50 (RXF 393) was 3.71 µM (inactive). The GI50 (MDA-MB-231) was 0.157 µM (active), the GI50 (LXFL 529) was 0.384 µM (active) and the GI50 (T47D) was 0.54 µM (active). For the same compound, the GI50 (SF-539) was 0.485 µM (active), the GI50 (NCI-H226) was 0.859 µM (active) and the GI50 (HOP-92) was 0.881 µM (active). The GI50 (KM-20L2) was 0.527 µM (active), the GI50 (SF-268) was 0.736 µM (active) and the GI50 (SK-MEL-28) was 0.792 µM (active). For the same compound, the GI50 (CAKI-1) was 4.29 µM (inactive), the GI50 (IGROV-1) was 0.675 µM (active) and the GI50 (PC-3) was 0.773 µM (active). For the same compound, the GI50 (MCF7) was 0.115 µM (active), the GI50 (A549) was 1.33 µM (inactive) and the GI50 (HCT-15) was 3.66 µM. For the same compound, the GI50 (NCI/ADR-RES) was 41.6 µM (inactive), the GI50 (HCC 2998) was 0.746 µM (active) and the GI50 (SNB-75) was 2.29 µM (inactive). For the same compound, the GI50 (Hs-578T) was 6.82 µM (inactive), the GI50 (CCRF-CEM) was 0.0673 µM (active) and the GI50 (DLD-1) was 1.28 µM (inactive). For the same compound, the GI50 (SNB-19) was 0.594 µM (active), the GI50 (UACC-257) was 0.933 µM (active) and the GI50 (SK-OV-3) was 1.8 µM (inactive). The GI50 (SR) was 0.153 µM (active), the GI50 (EKVX) was 0.925 µM (active) and the GI50 (SF-295) was 1.24 µM (inactive). The GI50 (SN12C) was 0.274 µM (active), the GI50 (TK-10) was 0.575 µM (active) and the GI50 (ACHN) was 1.4 µM (inactive). For the same compound, the GI50 (U-251) was 0.18 µM (active).
